According to patent US20220332764A1, “T CELL EPITOPES OF HCMV AND USES OF THEREOF” (EBERHARD KARLS UNIVERSITÄT TÜBINGEN, priority 2019, published 2022):

Test system: PBMCs of healthy HCMV-seropositive donors
Assay: IFNγ ELISpot after 12 day stimulation (memory T-cell response)
Assay type: cell-based, human
Details: for % Positive donors (after 12 days of stimulation): IFNγ ELISpot, HLA-matched seropositive donors; for Positive donors as tested: positive / tested HLA-matched seropositive donors, positive: >10 spots/well and at least 3-fold negative control
From the text: PHA was used as positive control.

## YSDRRDHVWSY (listed as Human cytomegalovirus) [SEQ ID NO: 66]
  % Positive donors (after 12 days of stimulation): 6.3%
  Positive donors as tested: 1/16

## DLDFGDLLKY (listed as Human cytomegalovirus) [SEQ ID NO: 65]
  % Positive donors (after 12 days of stimulation): 12.5%
  Positive donors as tested: 2/16

## FPDATVPATV (listed as Human cytomegalovirus) [SEQ ID NO: 96]
  % Positive donors (after 12 days of stimulation): 6.7%
  Positive donors as tested: 1/15

## GLNERLLSV (listed as Human cytomegalovirus) [SEQ ID NO: 15]
  % Positive donors (after 12 days of stimulation): 15.0%
  Positive donors as tested: 3/20

## IAIPHFMVV (listed as Human cytomegalovirus) [SEQ ID NO: 91]
  % Positive donors (after 12 days of stimulation): 33.3%
  Positive donors as tested: 5/15

## RLADVLIKR (listed as Human cytomegalovirus) [SEQ ID NO: 77]
  % Positive donors (after 12 days of stimulation): 15.4%
  Positive donors as tested: 2/13

## VMKFKETSF (listed as Human cytomegalovirus) [SEQ ID NO: 81]
  Positive donors as tested: 5/13

## RVSQPSLIL (listed as Human cytomegalovirus) [SEQ ID NO: 32]
  % Positive donors (after 12 days of stimulation): 26.7%
  Positive donors as tested: 4/15

## LYVGQFLAY (listed as Human cytomegalovirus) [SEQ ID NO: 21]
  % Positive donors (after 12 days of stimulation): 25.0%
  Positive donors as tested: 3/12

## IPHNWFLQV (listed as Human cytomegalovirus) [SEQ ID NO: 92]
  % Positive donors (after 12 days of stimulation): 33.3%
  Positive donors as tested: 5/15

## RENAGVALY (listed as Human cytomegalovirus) [SEQ ID NO: 45]
  % Positive donors (after 12 days of stimulation): 19.1%
  Positive donors as tested: 4/21

## FPAHDWPEV (listed as Human cytomegalovirus) [SEQ ID NO: 94]
  % Positive donors (after 12 days of stimulation): 13.3%
  Positive donors as tested: 2/15

## APNYRQVEL (listed as Human cytomegalovirus) [SEQ ID NO: 37]
  % Positive donors (after 12 days of stimulation): 16.7%
  Positive donors as tested: 2/12

## LPNDHHYAL (listed as Human cytomegalovirus) [SEQ ID NO: 38]
  % Positive donors (after 12 days of stimulation): 5.9%
  Positive donors as tested: 1/17

## SVSSAPLNK (listed as Human cytomegalovirus) [SEQ ID NO: 79]
  % Positive donors (after 12 days of stimulation): 7.1%
  Positive donors as tested: 1/14

## REQAAIPQIY (listed as Human cytomegalovirus) [SEQ ID NO: 50]
  % Positive donors (after 12 days of stimulation): 6.3%
  Positive donors as tested: 1/16

## VPAAVYTTV (listed as Human cytomegalovirus) [SEQ ID NO: 93]
  % Positive donors (after 12 days of stimulation): 33.3%
  Positive donors as tested: 5/15

## ALFNQLVFTA (listed as Human cytomegalovirus) [SEQ ID NO: 16]
  % Positive donors (after 12 days of stimulation): 13.3%
  Positive donors as tested: 2/15

## FISSKHTL (listed as Human cytomegalovirus) [SEQ ID NO: 84]
  % Positive donors (after 12 days of stimulation): 21.4%
  Positive donors as tested: 3/14

## GLLAHIPAL (listed as Human cytomegalovirus) [SEQ ID NO: 13]
  Positive donors as tested: 2/11

## RVDPNLRNR (listed as Human cytomegalovirus) [SEQ ID NO: 74]
  % Positive donors (after 12 days of stimulation): 33.3%
  Positive donors as tested: 5/15

## RLFDLPVYC (listed as Human cytomegalovirus) [SEQ ID NO: 6]
  % Positive donors (after 12 days of stimulation): 41.7%
  Positive donors as tested: 5/12

## APFGRVSV (listed as Human cytomegalovirus) [SEQ ID NO: 35]
  % Positive donors (after 12 days of stimulation): 20.0%
  Positive donors as tested: 3/15

## VTDYGNVAFKY (listed as Human cytomegalovirus) [SEQ ID NO: 61]
  % Positive donors (after 12 days of stimulation): 18.8%
  Positive donors as tested: 3/16
